Experimental data published in patent US20240209001A1, “HETEROCYCLIC DERIVATIVES AS JANUS KINASE INHIBITORS” (CHIESI FARMACEUTICI S.P. A., priority 2021, published 2024).

What was measured:
JAK 3 = JAK 3 (Homo sapiens (Human), UniProt P52333); assay: Biochemical potency on JAK3, TR-FRET LANCE Ultra kinase assay (compounds 1-92); details: ATP at Km, read-out: JAK3 inhibitory activity (pIC50 class) (converted)
Summary of the method: (§1)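 TR-FRET (LANCE Ultra) phosphorylation of ULight-JAK-1 peptide, ATP at Km: JAK1/JAK2/JAK3/TYK2 peptide 30/50/20/10 nM, ATP 20/0.7/0.2/12 μM, enzyme 0.15/0.083/0.025/0.144 ng/μL. 11-point 5-fold series from 20 μM; 1.5 h RT, EDTA stop, Eu-anti-pTyr detection 1 h; IC50 by variable-slope fit.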

JAK 1 = JAK 1 (Homo sapiens (Human), UniProt P23458); assay: Biochemical potency on JAK1, TR-FRET LANCE Ultra kinase assay (compounds 1-92); details: ATP at Km, read-out: JAK1 inhibitory activity (pIC50 class) (converted)
Chain of JAK 1 (P23458 whole entry): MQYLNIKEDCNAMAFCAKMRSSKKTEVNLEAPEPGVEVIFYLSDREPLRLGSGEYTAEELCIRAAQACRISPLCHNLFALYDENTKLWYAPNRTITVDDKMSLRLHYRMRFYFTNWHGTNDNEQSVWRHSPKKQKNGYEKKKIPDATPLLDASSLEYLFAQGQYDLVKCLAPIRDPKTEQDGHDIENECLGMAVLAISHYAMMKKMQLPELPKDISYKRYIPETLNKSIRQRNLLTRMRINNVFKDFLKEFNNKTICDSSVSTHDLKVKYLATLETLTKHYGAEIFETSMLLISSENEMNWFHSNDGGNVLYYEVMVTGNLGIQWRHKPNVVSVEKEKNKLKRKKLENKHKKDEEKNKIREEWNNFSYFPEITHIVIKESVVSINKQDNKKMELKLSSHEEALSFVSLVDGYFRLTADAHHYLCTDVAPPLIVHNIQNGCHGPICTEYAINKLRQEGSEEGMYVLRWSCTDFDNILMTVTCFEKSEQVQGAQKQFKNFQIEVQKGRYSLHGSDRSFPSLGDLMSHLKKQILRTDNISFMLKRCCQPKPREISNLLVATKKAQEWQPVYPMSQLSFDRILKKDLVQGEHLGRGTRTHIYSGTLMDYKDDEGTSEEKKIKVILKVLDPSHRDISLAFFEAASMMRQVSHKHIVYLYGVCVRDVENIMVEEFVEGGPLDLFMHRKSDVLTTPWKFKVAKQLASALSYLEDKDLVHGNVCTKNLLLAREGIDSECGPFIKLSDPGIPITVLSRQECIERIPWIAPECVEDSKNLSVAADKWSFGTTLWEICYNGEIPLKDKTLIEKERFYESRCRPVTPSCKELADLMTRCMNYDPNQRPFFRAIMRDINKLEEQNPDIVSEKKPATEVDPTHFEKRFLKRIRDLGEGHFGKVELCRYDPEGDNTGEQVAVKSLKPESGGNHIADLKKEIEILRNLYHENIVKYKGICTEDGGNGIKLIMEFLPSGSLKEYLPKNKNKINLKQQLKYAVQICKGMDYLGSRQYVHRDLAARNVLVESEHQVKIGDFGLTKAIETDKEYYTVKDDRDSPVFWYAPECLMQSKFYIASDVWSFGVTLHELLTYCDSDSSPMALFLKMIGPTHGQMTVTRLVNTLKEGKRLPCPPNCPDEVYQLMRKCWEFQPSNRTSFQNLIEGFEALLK
Summary of the method: as §1

JAK 2 = JAK 2 (Homo sapiens (Human), UniProt O60674); assay: Biochemical potency on JAK2, TR-FRET LANCE Ultra kinase assay (compounds 1-92); details: ATP at Km, read-out: JAK2 inhibitory activity (pIC50 class) (converted)
Chain of JAK 2 (O60674 whole entry): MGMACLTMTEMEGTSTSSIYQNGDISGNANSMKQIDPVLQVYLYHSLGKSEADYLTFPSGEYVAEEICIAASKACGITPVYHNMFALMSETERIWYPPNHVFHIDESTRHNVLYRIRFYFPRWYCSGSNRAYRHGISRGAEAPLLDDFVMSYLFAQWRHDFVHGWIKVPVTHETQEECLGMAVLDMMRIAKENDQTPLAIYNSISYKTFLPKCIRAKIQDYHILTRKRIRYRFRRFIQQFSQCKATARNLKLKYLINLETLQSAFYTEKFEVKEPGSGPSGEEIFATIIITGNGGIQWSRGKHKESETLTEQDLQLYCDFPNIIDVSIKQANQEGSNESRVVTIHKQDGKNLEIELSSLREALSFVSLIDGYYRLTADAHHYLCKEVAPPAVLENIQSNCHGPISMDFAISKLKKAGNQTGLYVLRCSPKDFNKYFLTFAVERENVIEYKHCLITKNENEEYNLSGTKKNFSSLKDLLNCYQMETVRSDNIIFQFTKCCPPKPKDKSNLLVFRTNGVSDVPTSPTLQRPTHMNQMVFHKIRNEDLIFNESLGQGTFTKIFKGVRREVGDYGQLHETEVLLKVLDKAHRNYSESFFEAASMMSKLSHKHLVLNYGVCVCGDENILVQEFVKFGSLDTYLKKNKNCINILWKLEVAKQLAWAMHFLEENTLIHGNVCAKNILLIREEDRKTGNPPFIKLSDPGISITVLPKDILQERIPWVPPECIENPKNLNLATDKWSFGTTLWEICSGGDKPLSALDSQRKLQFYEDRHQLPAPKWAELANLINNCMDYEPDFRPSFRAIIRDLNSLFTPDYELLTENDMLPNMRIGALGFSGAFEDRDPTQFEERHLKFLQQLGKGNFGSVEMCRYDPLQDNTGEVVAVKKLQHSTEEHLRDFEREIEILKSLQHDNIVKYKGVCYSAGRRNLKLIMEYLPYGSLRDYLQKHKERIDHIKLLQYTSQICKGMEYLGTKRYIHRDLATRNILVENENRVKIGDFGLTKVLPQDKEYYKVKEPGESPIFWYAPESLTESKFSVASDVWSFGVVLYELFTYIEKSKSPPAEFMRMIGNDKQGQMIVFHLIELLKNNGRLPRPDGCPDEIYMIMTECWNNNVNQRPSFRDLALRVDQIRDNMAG
Summary of the method: as §1

TYK2 = TYK2 (Homo sapiens (Human), UniProt P29597); assay: Biochemical potency on Tyk2, TR-FRET LANCE Ultra kinase assay (compounds 1-92); details: ATP at Km, read-out: Tyk2 inhibitory activity (pIC50 class) (converted)
Chain of TYK2 (P29597 whole entry): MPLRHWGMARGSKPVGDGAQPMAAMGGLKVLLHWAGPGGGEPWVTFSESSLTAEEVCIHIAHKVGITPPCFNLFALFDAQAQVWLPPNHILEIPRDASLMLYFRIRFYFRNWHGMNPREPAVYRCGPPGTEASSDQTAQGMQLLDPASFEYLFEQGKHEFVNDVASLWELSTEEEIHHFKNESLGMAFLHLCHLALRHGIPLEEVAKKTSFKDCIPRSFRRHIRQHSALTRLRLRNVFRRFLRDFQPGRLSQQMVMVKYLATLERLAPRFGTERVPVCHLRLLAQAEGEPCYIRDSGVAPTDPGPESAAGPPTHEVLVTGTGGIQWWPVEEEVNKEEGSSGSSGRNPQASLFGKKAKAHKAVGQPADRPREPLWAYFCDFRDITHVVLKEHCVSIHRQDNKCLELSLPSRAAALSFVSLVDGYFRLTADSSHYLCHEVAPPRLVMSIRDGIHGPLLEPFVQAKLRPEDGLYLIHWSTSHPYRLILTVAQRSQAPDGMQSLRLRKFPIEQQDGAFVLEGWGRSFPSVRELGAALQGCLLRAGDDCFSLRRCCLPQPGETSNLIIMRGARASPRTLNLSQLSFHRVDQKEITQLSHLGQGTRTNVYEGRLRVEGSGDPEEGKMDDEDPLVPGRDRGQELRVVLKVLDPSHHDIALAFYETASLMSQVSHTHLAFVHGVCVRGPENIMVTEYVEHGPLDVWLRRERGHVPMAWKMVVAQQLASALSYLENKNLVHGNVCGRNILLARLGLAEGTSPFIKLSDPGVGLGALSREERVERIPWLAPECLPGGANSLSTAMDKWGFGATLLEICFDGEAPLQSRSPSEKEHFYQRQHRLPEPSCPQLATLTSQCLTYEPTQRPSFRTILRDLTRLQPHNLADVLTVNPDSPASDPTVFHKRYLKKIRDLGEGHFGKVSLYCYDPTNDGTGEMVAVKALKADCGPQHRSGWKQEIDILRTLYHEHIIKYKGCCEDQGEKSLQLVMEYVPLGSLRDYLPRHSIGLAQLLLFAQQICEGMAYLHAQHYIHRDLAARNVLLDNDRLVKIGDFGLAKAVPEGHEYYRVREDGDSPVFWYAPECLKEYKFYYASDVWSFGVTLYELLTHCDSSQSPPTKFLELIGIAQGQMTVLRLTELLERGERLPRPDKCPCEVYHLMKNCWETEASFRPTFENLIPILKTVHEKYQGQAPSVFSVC
Summary of the method: as §1

Chain of JAK 3 (P52333 whole entry): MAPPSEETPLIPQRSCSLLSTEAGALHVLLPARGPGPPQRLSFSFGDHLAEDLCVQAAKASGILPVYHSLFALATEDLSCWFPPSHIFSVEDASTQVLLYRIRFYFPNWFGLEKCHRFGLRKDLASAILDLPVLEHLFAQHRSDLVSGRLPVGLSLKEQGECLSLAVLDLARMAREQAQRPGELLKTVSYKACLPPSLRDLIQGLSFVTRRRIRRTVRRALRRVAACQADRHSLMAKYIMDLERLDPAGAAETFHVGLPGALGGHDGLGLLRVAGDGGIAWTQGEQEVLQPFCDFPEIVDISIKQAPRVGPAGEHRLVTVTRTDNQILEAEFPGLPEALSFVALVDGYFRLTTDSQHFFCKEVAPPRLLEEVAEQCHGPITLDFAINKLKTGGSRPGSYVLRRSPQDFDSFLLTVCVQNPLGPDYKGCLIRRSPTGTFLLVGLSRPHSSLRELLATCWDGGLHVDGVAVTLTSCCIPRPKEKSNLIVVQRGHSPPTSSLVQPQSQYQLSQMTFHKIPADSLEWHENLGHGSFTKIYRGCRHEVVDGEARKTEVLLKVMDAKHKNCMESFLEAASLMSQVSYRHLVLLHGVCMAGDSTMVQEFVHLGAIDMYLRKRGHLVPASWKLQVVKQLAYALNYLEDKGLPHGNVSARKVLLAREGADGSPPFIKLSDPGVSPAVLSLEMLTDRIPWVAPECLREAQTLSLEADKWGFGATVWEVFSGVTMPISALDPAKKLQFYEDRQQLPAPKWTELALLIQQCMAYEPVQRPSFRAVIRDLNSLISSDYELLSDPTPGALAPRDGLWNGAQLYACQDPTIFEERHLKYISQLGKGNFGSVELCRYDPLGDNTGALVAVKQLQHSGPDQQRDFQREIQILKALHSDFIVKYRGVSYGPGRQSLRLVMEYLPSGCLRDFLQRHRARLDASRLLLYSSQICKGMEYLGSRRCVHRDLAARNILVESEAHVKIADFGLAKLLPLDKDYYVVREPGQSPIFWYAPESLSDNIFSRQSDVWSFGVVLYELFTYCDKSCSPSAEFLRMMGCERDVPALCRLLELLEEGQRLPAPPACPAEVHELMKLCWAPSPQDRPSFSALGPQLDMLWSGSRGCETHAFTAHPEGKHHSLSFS

IC50 (JAK 3) [nM] | IC50 (JAK 1) [nM] | IC50 (JAK 2) [nM] | IC50 (TYK2) [nM] | Compound
5.01 to 50.1 | 5.01 to 50.1 | 5.01 to 50.1 | > 50.1 | CNC(=O)Nc1ccc(-n2nc(C)c3cnc(-c4cnn5cccnc45)cc32)c(OC)c1 [Example 18, 1-(3-methoxy-4-(3-methyl-6-(pyrazolo[1,5-a]pyrimidin-3-yl)-1H-pyrazolo[4,3-c]pyridin-1-yl)phenyl)-3-methylurea]
≤ 5.01 | ≤ 5.01 | ≤ 5.01 | ≤ 5.01 | COc1cc(NS(C)(=O)=O)ccc1-n1nc(C)c2cnc(Nc3ncc[nH]c3=O)cc21 [Example 85, N-(3-methoxy-4-(3-methyl-6-((3-oxo-3,4-dihydropyrazin-2-yl)amino)-1H-pyrazolo[4,3-c]pyridin-1-yl)phenyl)methanesulfonamide]
5.01 to 50.1 | 5.01 to 50.1 | ≤ 5.01 | 5.01 to 50.1 | COc1cc(NS(=O)(=O)C2CC2)ccc1-n1nc(NCCN(C)C)c2cnc(-c3cnn4cccnc34)cc21 [Example 32, N-(4-(3-((2-(dimethylamino)ethyl)amino)-6-(pyrazolo[1,5-a]pyrimidin-3-yl)-1H-pyrazolo[4,3-c]pyridin-1-yl)-3-methoxyphenyl)cyclopropanesulfonamide]
5.01 to 50.1 | 5.01 to 50.1 | ≤ 5.01 | 5.01 to 50.1 | COc1cc(NS(=O)(=O)C2CCOC2)ccc1-n1nc(C)c2cnc(-c3cnn4cccnc34)cc21 (centres unmarked) [Example 9, N-(3-methoxy-4-(3-methyl-6-(pyrazolo[1,5-a]pyrimidin-3-yl)-1H-pyrazolo[4,3-c]pyridin-1-yl)phenyl)tetrahydrofuran-3-sulfonamide]
≤ 5.01 | 5.01 to 50.1 | ≤ 5.01 | > 50.1 | CNS(=O)(=O)c1ccc(-n2nc(C)c3cnc(-c4cnn5cccnc45)cc32)c(OC)c1 [Example 49, 3-methoxy-N-methyl-4-(3-methyl-6-(pyrazolo[1,5-a]pyrimidin-3-yl)-1H-pyrazolo[4,3-c]pyridin-1-yl)benzenesulfonamide]
≤ 5.01 | ≤ 5.01 | ≤ 5.01 | 5.01 to 50.1 | COc1cc(NS(C)(=O)=O)ccc1-n1nc(NCCN2CCN(C)CC2)c2cnc(-c3cnn4cccnc34)cc21 [Example 38, N-(3-methoxy-4-(3-((2-(4-methylpiperazin-1-yl)ethyl)amino)-6-(pyrazolo[1,5-a]pyrimidin-3-yl)-1H-pyrazolo[4,3-c]pyridin-1-yl)phenyl)methanesulfonamide]
≤ 5.01 | ≤ 5.01 | ≤ 5.01 | > 50.1 | COc1cc(NS(C)(=O)=O)cnc1-n1nc(C)c2cnc(-c3cnn4cccnc34)cc21 [Example 11, N-(5-methoxy-6-(3-methyl-6-(pyrazolo[1,5-a]pyrimidin-3-yl)-1H-pyrazolo[4,3-c]pyridin-1-yl)pyridin-3-yl)methanesulfonamide]
5.01 to 50.1 | ≤ 5.01 | 5.01 to 50.1 | 5.01 to 50.1 | COc1cc(CNS(C)(=O)=O)ccc1-n1nc(C(=O)NCCCN(C)C)c2cnc(-c3cnn4cccnc34)cc21 [Example 59, N-(3-(dimethylamino)propyl)-1-(2-methoxy-4-(methylsulfonamidomethyl)phenyl)-6-(pyrazolo[1,5-a]pyrimidin-3-yl)-1H-pyrazolo[4,3-c]pyridine-3-carboxamide]
5.01 to 50.1 | 5.01 to 50.1 | 5.01 to 50.1 | 5.01 to 50.1 | COc1cc(NS(C)(=O)=O)ccc1-n1nc(N(C)CCN2CCOCC2)c2cnc(-c3cnn4cccnc34)cc21 [Example 40, N-(3-methoxy-4-(3-(methyl(2-morpholinoethyl)amino)-6-(pyrazolo[1,5-a]pyrimidin-3-yl)-1H-pyrazolo[4,3-c]pyridin-1-yl)phenyl)methanesulfonamide]
≤ 5.01 | ≤ 5.01 | ≤ 5.01 | 5.01 to 50.1 | CNc1nn(-c2ccc(NS(C)(=O)=O)cc2OC)c2cc(-c3cnn4cccnc34)ncc12 [Example 23, N-(3-methoxy-4-(3-(methylamino)-6-(pyrazolo[1,5-a]pyrimidin-3-yl)-1H-pyrazolo[4,3-c]pyridin-1-yl)phenyl)methanesulfonamide]
≤ 5.01 | ≤ 5.01 | ≤ 5.01 | 5.01 to 50.1 | COc1cc(NS(=O)(=O)CC(N)=O)ccc1-n1nc(C)c2cnc(-c3cnn4cccnc34)cc21 [Example 14, 2-(N-(3-methoxy-4-(3-methyl-6-(pyrazolo[1,5-a]pyrimidin-3-yl)-1H-pyrazolo[4,3-c]pyridin-1-yl)phenyl)sulfamoyl)acetamide]
≤ 5.01 | 5.01 to 50.1 | ≤ 5.01 | 5.01 to 50.1 | COc1cc(NS(=O)(=O)c2cnn(C)c2)ccc1-n1nc(C)c2cnc(Nc3ncc[nH]c3=O)cc21 [Example 86, N-(3-methoxy-4-(3-methyl-6-((3-oxo-3,4-dihydropyrazin-2-yl)amino)-1H-pyrazolo[4,3-c]pyridin-1-yl)phenyl)-1-methyl-1H-pyrazole-4-sulfonamide]
≤ 5.01 | ≤ 5.01 | ≤ 5.01 | 5.01 to 50.1 | CCCS(=O)(=O)Nc1ccc(-n2nc(NC)c3cnc(Nc4ncc[nH]c4=O)cc32)c(OC)c1 [Example 91, N-(3-methoxy-4-(3-(methylamino)-6-((3-oxo-3,4-dihydropyrazin-2-yl)amino)-1H-pyrazolo[4,3-c]pyridin-1-yl)phenyl)propane-1-sulfonamide]
≤ 5.01 | ≤ 5.01 | ≤ 5.01 | 5.01 to 50.1 | CNc1nn(-c2ccc(S(=O)(=O)NC)cc2OC)c2cc(-c3cnn4cccnc34)ncc12 [Example 51, 3-methoxy-N-methyl-4-(3-(methylamino)-6-(pyrazolo[1,5-a]pyrimidin-3-yl)-1H-pyrazolo[4,3-c]pyridin-1-yl)benzenesulfonamide]
5.01 to 50.1 | 5.01 to 50.1 | ≤ 5.01 | > 50.1 | COc1cc(NS(=O)(=O)C2CCOCC2)ccc1-n1nc(C)c2cnc(-c3cnn4cccnc34)cc21 [Example 3, N-(3-methoxy-4-(3-methyl-6-(pyrazolo[1,5-a]pyrimidin-3-yl)-1H-pyrazolo[4,3-c]pyridin-1-yl)phenyl)tetrahydro-2H-pyran-4-sulfonamide]
≤ 5.01 | ≤ 5.01 | ≤ 5.01 | 5.01 to 50.1 | COCCN1CCC(CNc2nn(-c3ccc(NS(C)(=O)=O)cc3OC)c3cc(-c4cnn5cccnc45)ncc23)CC1 [Example 27, N-(3-methoxy-4-(3-(((1-(2-methoxyethyl)piperidin-4-yl)methyl)amino)-6-(pyrazolo[1,5-a]pyrimidin-3-yl)-1H-pyrazolo[4,3-c]pyridin-1-yl)phenyl)methanesulfonamide]
≤ 5.01 | ≤ 5.01 | ≤ 5.01 | 5.01 to 50.1 | COc1cc(NS(C)(=O)=O)ccc1-n1nc(NCCN(C)C)c2cnc(-c3cnn4cccnc34)cc21 [Example 31, N-(4-(3-((2-(dimethylamino)ethyl)amino)-6-(pyrazolo[1,5-a]pyrimidin-3-yl)-1H-pyrazolo[4,3-c]pyridin-1-yl)-3-methoxyphenyl)methanesulfonamide]
≤ 5.01 | ≤ 5.01 | ≤ 5.01 | 5.01 to 50.1 | COc1cc(NS(C)(=O)=O)ccc1-n1nc(NCCN2CCCCC2)c2cnc(-c3cnn4cccnc34)cc21 [Example 37, N-(3-methoxy-4-(3-((2-(piperidin-1-yl)ethyl)amino)-6-(pyrazolo[1,5-a]pyrimidin-3-yl)-1H-pyrazolo[4,3-c]pyridin-1-yl)phenyl)methanesulfonamide]
≤ 5.01 | 5.01 to 50.1 | ≤ 5.01 | 5.01 to 50.1 | COc1cc(NC(=O)c2ccccc2)cnc1-n1nc(C)c2cnc(-c3cnn4cccnc34)cc21 [Example 48, N-(5-methoxy-6-(3-methyl-6-(pyrazolo[1,5-a]pyrimidin-3-yl)-1H-pyrazolo[4,3-c]pyridin-1-yl)pyridin-3-yl)benzamide]
5.01 to 50.1 | 5.01 to 50.1 | 5.01 to 50.1 | > 50.1 | COc1cc(NS(C)(=O)=O)c(F)cc1-n1nc(C)c2cnc(-c3cnn4cccnc34)cc21 [Example 12, N-(2-fluoro-5-methoxy-4-(3-methyl-6-(pyrazolo[1,5-a]pyrimidin-3-yl)-1H-pyrazolo[4,3-c]pyridin-1-yl)phenyl)methanesulfonamide]
≤ 5.01 | ≤ 5.01 | ≤ 5.01 | 5.01 to 50.1 | COc1cc(NS(C)(=O)=O)ccc1-n1nc(NCCN2CCOCC2)c2cnc(-c3cnc4cccnn34)cc21 [Example 76, N-(4-(6-(imidazo[1,2-b]pyridazin-3-yl)-3-((2-morpholinoethyl)amino)-1H-pyrazolo[4,3-c]pyridin-1-yl)-3-methoxyphenyl)methanesulfonamide]
≤ 5.01 | ≤ 5.01 | ≤ 5.01 | ≤ 5.01 | COc1cc(NS(C)(=O)=O)ccc1-n1nc(NCCN2CCOCC2)c2cnc(Nc3ncc[nH]c3=O)cc21 [Example 87, N-(3-methoxy-4-(3-((2-morpholinoethyl)amino)-6-((3-oxo-3,4-dihydropyrazin-2-yl)amino)-1H-pyrazolo[4,3-c]pyridin-1-yl)phenyl)methanesulfonamide]
> 50.1 | > 50.1 | > 50.1 | > 50.1 | CNC(=O)c1ccc(-n2nc(C)c3cnc(-c4cnn5cccnc45)cc32)c(OC)c1 [Example 19, 3-methoxy-N-methyl-4-(3-methyl-6-(pyrazolo[1,5-a]pyrimidin-3-yl)-1H-pyrazolo[4,3-c]pyridin-1-yl)benzamide]
